Test results reported in EP0410446A1, “(S)-5-hydroxydecanoic acid and its therapeutic composition” (MOCHIDA PHARMACEUTICAL CO., LTD., priority 1989, dated 1991).
Read-outs that look alike come from different tables or passages of the source.

Assays:
[1] = test system: ATP regulated K⁺ channels; test: Effect on ATP regulated K⁺ channels in guinea-pig cardiac cells (single channel recording, inside-out patch clamp, opening probability); format: cell-based; conditions: for Inhibition rate (%): Dose 3x10⁻⁴ M, single guinea-pig cardiac cells, inside-out patch, opening probability at 0 mV membrane potential
Protocol: According to the method described by Kakei, M., et al., ( J. Physiol., 363 441-462, 1985 ), single cardiac cells were prepared. Guinea-pigs were anesthetized with an intraperitoneally injection of pentobarbital sodium with 30 mg/kg and the chest was opened under artificial respiration. The aorta was cannulated in situ to perfuse the coronary arteries with Tyrode solution (NaCl 136.1, KCl 5.4, CaCl₂ 1.8, MgCl₂ 0.5, NaH₂PO₄ 0.33, glucose 5.5, N-2-hydroxyethylpiperazine-N′-2-ethanesulfonic acid (HEPES) 5.0, each in mM, and the pH was adjusted to 7.4 with NaOH), then the heart was dissected out and mounted on Langendorff apparatus to perfuse. After blood was washed out by Tyrode solution, the heart was perfused with the 100 ml of Ca²⁺-free Tyrode solution and then with Ca²⁺-free Tyrode solution containing 0.17 mg/ml collagenase for 5-20 minutes. Subsequently, the enzyme was washed out from the heart with the 100 ml of KB solution (taurine 10, oxalic acid 10, glutamic acid 80, KCl 25, KH₂PO₄ 10, HEPES 10, glucose 11, ethyleneglycolbis(β-aminoethylether)-N,N′-tetraacetic acid (EGTA) 0.5, each in mM, and the pH was adjusted to 7.4 with KOH) and the heart was stored in KB solution at 4°C for at least 1 hour. Before electrical recording, a part of ventricular muscle was dissected and was shaken in recording chamber (0.7 ml) filled with Tyrode solution to disperse each cells. The method of single channel electrical recording was essentially the same as described by Hamill, A., et al., (Pflugers Arch., 391 85-100, 1981 ). Glass electrodes were made from Pyrex glass capillaries by use of a puller (2 - 10 MΩ) and were heated to polish just before use. An electrode solution was KCl 5.4, NaCl 144.6, CaCl₂ 2, HEPES 5 (each in mM) and the pH was adjusted to 7.4 with NaOH. After dispersed cells sank and adhered to the bottom of recording chamber, high K⁺ solution (KCl 140, MgCl₂ 1.0, KH₂PO₄ 0.5, EGTA 1.0, HEPES 5.0, each in mM, and the pH was adjusted to 7.4 with KOH) was perfused at flow rate of 2 - 3 ml/minute. After established a high seal resistance (5 - 20 GΩ) obtained by attaching an electrode to a cell membrane and applying suction (0 - -50 cm H₂O), a channel current was detected by inside-out configuration by use of a patch clamp amplifier (8900, DAGAN) at a filter setting of 1 KHz. A channel current and a membrane potential were monitored by an oscilloscope and were recorded by a datarecorder. An opening probability, that is a ratio of channel opening period to recording period, were analyzed by using a p-CLAMP (AXON) at 0 mV of a membrane potential. Compounds were dissolved in high K⁺ solution to be perfused.

[2] = test system: male ddY mice; format: in vivo; conditions: 1 g/kg, five male ddY mice, observed for one week
Description: Five male ddY mice weighting about 25 g were orally administered once or intraperitoneally injected once with 1 g/kg of sodium (S)-5-hydroxydecanoate.

## CCCCC[C@H](O)CCCC(=O)[O-].[Na+] [(S)-5-HD, sodium (S)-5-hydroxydecanoate]
[1]
  Inhibition rate (%): 69%
[1]; comparison of the values in table 1, 3x10⁻⁴ M
  inhibitory effect on ATP regulated K⁺ channels compared with racemate: about twice as good as racemate
[2]; intraperitoneally injected once
  Acute toxicity (abnormality, death): no abnormality occurred and no animal died
[2]; orally administered once
  Acute toxicity (abnormality, death): no abnormality occurred and no animal died

## CCCCCC(O)CCCC(=O)[O-].[Na+] (racemic) [(R,S)-5-HD, Sodium 5-hydroxydecanoate]
[1]
  Inhibition rate (%): 30%

## CCCCC[C@@H](O)CCCC(=O)[O-].[Na+] [(R)-5-HD, Sodium 5-hydroxydecanoate]
[1]
  Inhibition rate (%): 10%
[1]; summary of table 1, 3x10⁻⁴ M
  activity on ATP regulated K⁺ channels (in words): few activity
